The results in this text go back to ChEMBL document CHEMBL2163329, “Tuberculosis: the drug development pipeline at a glance” (Eur J Med Chem, 2012).

Molecules are shown by their SMILES. In brackets after ≈: the same amount, converted by molar mass.

As usually defined, the MIC is the lowest concentration that inhibits growth of the organism. A word on the MIC90: it is the lowest concentration that inhibits either 90% of growth or 90% of the strains tested, depending on the study. The low end stands for higher susceptibility, the high end for lower susceptibility.

What all share (type): functional
The subject of experiment [1] is Mycobacterium tuberculosis. Nature of the experiment: Antimycobacterial activity against drug-resistant Mycobacterium tuberculosis.
The test system of experiment [2] is Mycobacterium tuberculosis. Nature of the experiment: Antimycobacterial activity against RIF-resistant Mycobacterium tuberculosis.
In experiment [3] the test system is Mycobacterium tuberculosis. Nature of the experiment: Antimycobacterial activity against INH-resistant Mycobacterium tuberculosis.
Experiment [4] concerns Mycobacterium tuberculosis. Nature of the experiment: Antimycobacterial activity against EMB-resistant Mycobacterium tuberculosis.
Experiment [5] deals with Mycobacterium tuberculosis. Briefly: Antimycobacterial activity against quinolone-resistant, multidrug-resistant Mycobacterium tuberculosis.

`O=[N+]([O-])c1cn2c(n1)OC[C@@H](OCc1ccc(OC(F)(F)F)cc1)C2` [PRETOMANID] had a minimum inhibitory concentration (MIC) in experiment [1] of 0.015 µg/mL (≈ 0.0418 µM).

As to `C[C@]1(COc2ccc(N3CCC(Oc4ccc(OC(F)(F)F)cc4)CC3)cc2)Cn2cc([N+](=O)[O-])nc2O1`, the MIC in experiment [1] was determined as 0.006 µg/mL (≈ 0.0112 µM).

Consider `CC(=O)NC[C@H]1CN(c2ccc(N3CCSCC3)c(F)c2)C(=O)O1` [SUTEZOLID], for which it took 0.03 µg/mL (≈ 0.0849 µM) to inhibit growth in experiment [1] (MIC).

The molecule `COc1nc2ccc(Br)cc2cc1[C@@H](c1ccccc1)[C@@](O)(CCN(C)C)c1cccc2ccccc12` [BEDAQUILINE] showed a minimum inhibitory concentration (MIC) in experiment [1] of 0.003 µg/mL (≈ 0.0054 µM).

In the case of `CC(C)=CCC/C(C)=C/CNCCNC1C2CC3CC(C2)CC1C3` (stereo not drawn) [SQ109], the MIC in experiment [2] is 0.7 µM (≈ 0.231 µg/mL); in experiment [3] it was 1.4 µM (≈ 0.463 µg/mL); in experiment [4], 0.9 µM (≈ 0.298 µg/mL).

The molecule `COc1c(N2CC3(CC3)[C@](C)(N)C2)c(F)cc2c(=O)c(C(=O)O)cn([C@@H]3C[C@@H]3F)c12` returned an MIC90 in experiment [5] of 0.5 µg/mL (≈ 1.19 µM).
